From the NIST ThermoML archive (doi:10.1016/j.tca.2012.12.004)
± gives the expanded uncertainty stated by the source.

Test: molar heat capacity at constant pressure; xn = mol fraction of the nth substance listed
Conditions: 101 kPa, Crystal, Small (less than 1 g) adiabatic calorimetry, x1 = 0.7

[Ba+2].[F-].[F-] [barium difluoride] + [F][La]([F])[F]
Conditions	molar heat capacity at constant pressure [J/K/mol]
10 K	0.3566 ± 0.2
15 K	1.198 ± 0.2
20 K	2.757 ± 0.21
25 K	4.992 ± 0.22
30 K	7.683 ± 0.23
35 K	10.6 ± 0.24
40 K	13.58 ± 0.25
45 K	16.57 ± 0.27
50 K	19.51 ± 0.28
60 K	25.25 ± 0.3
70 K	30.71 ± 0.32
80 K	35.83 ± 0.34
90 K	40.57 ± 0.36
100 K	44.9 ± 0.38
110 K	48.81 ± 0.4
120 K	52.33 ± 0.41
130 K	55.47 ± 0.42
140 K	58.27 ± 0.43
150 K	60.76 ± 0.44
160 K	62.98 ± 0.45
170 K	64.95 ± 0.46
180 K	66.7 ± 0.47
190 K	68.28 ± 0.47
200 K	69.68 ± 0.48
210 K	70.94 ± 0.48
220 K	72.07 ± 0.49
230 K	73.09 ± 0.49
240 K	74.02 ± 0.5
250 K	74.85 ± 0.5
260 K	75.6 ± 0.5
270 K	76.29 ± 0.51
280 K	76.91 ± 0.51
290 K	77.48 ± 0.51
298.15 K	77.91 ± 0.51
300 K	78.01 ± 0.51
310 K	78.48 ± 0.51
320 K	78.93 ± 0.52
330 K	79.33 ± 0.52
340 K	79.7 ± 0.52
